Legend:
[1] = system: Tetranychus urticae; assay: Two-spotted mite acaricidal test on pinto bean plants; type: in vivo, two-spotted mite Tetranychus urticae (Koch); conditions: percent concentration in solution, 5-7 days; for LC50 2-SM A: adults; for LC50 2-SM E: eggs
Source text: Acaricidal Evaluation Test
The two-spotted mite (2SM) [Tetranychus urticae (Koch)]was employed in tests for miticides. The test procedure was as follows:
Pinto bean plants (Phaseolus sp.) approximately 10 cm tall, were transplanted into sandy loam soil in small cups and thoroughly infested with two-spotted mites of mixed ages and sexes. Twenty-four hours later the infested plants were inverted and dipped for 2-3 seconds in 50--50 acetone-water solutions of the test compound. Treated plants were held in the greenhouse, and 5-7 days later mortality was determined for both adult mites and the nymphs hatching from eggs which were on the plants at the time of treatment. Test concentrations ranged from 0.05% downward. The LC-50 value is expressed below in Table II under the headings "2SM-A" (i.e., adults) and "2SM-E" (i.e. eggs) in terms of percent concentration of the test compound in the solution.

[2] = system: Musca domestica; assay: Housefly contact test, mortality after 48 hours; type: in vivo, Housefly Musca domestica; conditions: μg of the test compound per 25 female flies
Experimental: (§1) The compounds in Table I above were tested for insecticidal activity using the following testing procedures. LC50 values, based on the results of these tests and calculated according to dosage-mortality curves, are expressed in Table II.
The test compound was diluted in acetone and aliquots pipetted onto the bottom of aluminum dishes. To ensure even spreading of the chemical on the bottom of the dishes, 1 ml of acetone containing 0.01% peanut oil was also added to each dish. After all solvents had evaporated, the dishes were placed in circular cardboard cages containing 25 female houseflies, 1-2 days old. The cages were covered on the bottom with cellophane and on the top with tulle netting, and each contained a sugar-water saturated cotton plug for maintenance of the flies. Mortality was recorded after 48 hours. Test levels ranged from 100 μg/25 female houseflies downward. The LC-50 value is expressed below in Table II under the heading "HF", in terms of μg of the test compound per 25 female flies.

[3] = system: Diabrotica undecimpunctata undecimpunctata; assay: Western spotted cucumber beetle larvae soil test; type: in vivo; conditions: Diabrotica eggs/larvae; ppm of the test compound in the soil
Experimental: as §1
Western Spotted Cucumber Beetle Larvae Diabrotica undecimpunctata undecimpunctata (Mannherheim)
Ten grams of moist potting soil was placed in a plastic cup. The test compound was dissolved in acetone. A 0.05 ml aliquot of the test sample, diluted to the desired concentration, was added to the soil. The cup was capped and the soil was mixed on a vortex mixer for approximately 15 seconds. An indentation was made on the surface of the soil and approximately 50 Diabrotica eggs were added. The eggs were covered with soil and maintained at room temperature (approximately 70° F. or 21° C.). Four days later a section of Romaine lettuce (Latuca sativa) leaf was placed in the treated cups. One week later the cups were examined for live larvae. Test concentrations ranged from 25 ppm downward. The LC-50 value is expressed below in Table II under the heading "Diabrotica" in terms of ppm of the test compound in the soil.

[4] = system: Heliothis virescens; assay: Tobacco budworm egg dip test; type: in vivo, Tobacco Budworm Heliothis virescens (Fabricius); conditions: 2-day old eggs (TBW-E), percent of test compound in solution
Experimental: as §1
Tobacco Budworm Heliothis virescens (Fabricius)
Eggs: Paper towel patches of 2-day old eggs of the tobacco budworm were dipped in acetone solutions of the test compound and placed in petri dishes containing a portion of larval rearing medium. Treated eggs were maintained at 78° F. and mortality was recorded after all control eggs had hatched and the young larvae were feeding on the media. Test concentrations ranged from 0.1% downward. The LC-50 value is expressed below in Table II under the heading "TBW-E" in terms of percent of the test compound in the solution.

[5] = system: Trichoplusia ni; assay: Cabbage looper larvae leaf-dip test; type: in vivo, Cabbage Looper Trichoplusia ni (Hubner); conditions: second instar larvae, percent of test compound in solution, 3-5 days
Experimental: as §1
Cabbage Looper Trichoplusia ni (Hubner)
The test compound was diluted in a 50--50 acetone-water solution Cotyledons of hyzini squash (Calabacita abobrinha), approximately 1×1.5 inches, were immersed in the test solutions for 2-3 seconds and placed on a wire screen to dry. The dried leaves were p1aced in petri dishes containing a moistened piece of filter paper and infested with 5 secondinstar cabbage looper larvae. The dishes were placed in a high humidity chamber. Mortality of the larvae was recorded 3-5 days later. Test concentrations ranged from 0.1% downward. The LC-50 value is expressed below in Table II under the heading "CL" in terms of percent of the test compound in solution.

[6] = system: Aphis fabae; assay: Black bean aphid spray test on nasturtium plants, mortality after 48 hours; type: in vivo, Black Bean Aphid Aphis fabae (Scop.); conditions: mixed ages, percent of test compound in sprayed solution
Experimental: as §1
Black Bean Aphid Aphis fabae (Scop.)
Nasturtium plants (Tropaeolum sp.) approximately 5 cm tall, were transplanted into sandy loam soil in small cups and infested with 25-50 black bean aphids of mixed ages. Twenty-four hours later they were sprayed to the point of runoff with 50--50 acetone-water solutions of the test compound. Treated plants were held in the greenhouse and mortality was recorded after 48 hours. Test concentrations ranged from 0.05% downward. The LC-50 value is expressed below in Table II under the heading "BA" in terms of percent of the test compound in the sprayed solution.

CC(C)C(=Nc1ccc(Cl)nc1)OCc1cccc(Oc2ccccc2)c1 [Compound 1, N-(6-Chloro-3-pyridyl)-0-(3-phenoxybenzyl)isobutyrylimidate]
LC50 2-SM A [1]: > 0.05%
LC50 2-SM E [1]: > 0.05%
LC50 HF [2]: 5.5 µg
LC50 Diabrotica [3]: > 25 ppm
LC50 TBW [4]: 0.04%
LC50 CL [5]: 0.005%
LC50 BA [6]: 0.001%

CC(C)C(=Nc1ccc(Cl)nc1Cl)OCc1cccc(Oc2ccccc2)c1 [Compound 2]
LC50 2-SM A [1]: > 0.05%
LC50 2-SM E [1]: > 0.05%
LC50 HF [2]: 18 µg
LC50 Diabrotica [3]: > 25 ppm
LC50 TBW [4]: 0.075%
LC50 CL [5]: 0.0027%
LC50 BA [6]: 0.003%

COc1ccc(N=C(OCc2cccc(Oc3ccccc3)c2)C(C)C)cn1 [Compound 3]
LC50 2-SM A [1]: > 0.05%
LC50 2-SM E [1]: > 0.05%
LC50 HF [2]: 7 µg
LC50 Diabrotica [3]: > 25 ppm
LC50 TBW [4]: > 0.1%
LC50 CL [5]: 0.0075%
LC50 BA [6]: 0.003%

CC(C)C(=Nc1ccc(C(F)(F)F)cn1)OCc1cccc(Oc2ccccc2)c1 [Compound 4]
LC50 2-SM A [1]: > 0.05%
LC50 2-SM E [1]: > 0.05%
LC50 HF [2]: 42 µg
LC50 Diabrotica [3]: > 25 ppm
LC50 TBW [4]: > 0.1%
LC50 CL [5]: 0.008%
LC50 BA [6]: 0.05%

CC(C)C(=Nc1ccc(F)nc1)OCc1cccc(Oc2ccccc2)c1 [Compound 5]
LC50 2-SM A [1]: > 0.05%
LC50 2-SM E [1]: > 0.05%
LC50 HF [2]: 8 µg
LC50 Diabrotica [3]: > 25 ppm
LC50 TBW [4]: 0.09%
LC50 CL [5]: 0.008%
LC50 BA [6]: 0.003%

CC(C)C(=Nc1c(F)c(F)nc(F)c1F)OCc1cccc(Oc2ccccc2)c1 [Compound 6]
LC50 2-SM A [1]: > 0.05%
LC50 2-SM E [1]: > 0.05%
LC50 HF [2]: > 100 µg
LC50 Diabrotica [3]: > 25 ppm
LC50 TBW [4]: > 0.1%
LC50 CL [5]: 0.004%
LC50 BA [6]: > 0.05%

Clc1ccc(N=C(OCc2cccc(Oc3ccccc3)c2)C2CC2)cn1 [Compound 7]
LC50 2-SM A [1]: > 0.05%
LC50 2-SM E [1]: > 0.05%
LC50 HF [2]: > 100 µg
LC50 Diabrotica [3]: > 25 ppm
LC50 TBW [4]: > 0.1%
LC50 CL [5]: 0.022%
LC50 BA [6]: > 0.05%

Cc1cc(N=C(OCc2cccc(Oc3ccccc3)c2)C(C)C)no1 [Compound 8]
LC50 2-SM A [1]: > 0.05%
LC50 2-SM E [1]: > 0.05%
LC50 HF [2]: > 100 µg
LC50 Diabrotica [3]: > 25 ppm
LC50 TBW [4]: > 0.1%
LC50 CL [5]: 0.1%
LC50 BA [6]: > 0.05%

CC(C)(Cl)C(=Nc1nnc(C(F)(F)F)s1)OCc1cccc(Oc2ccccc2)c1 [Compound 9]
LC50 2-SM A [1]: > 0.05%
LC50 2-SM E [1]: > 0.05%
LC50 HF [2]: > 100 µg
LC50 Diabrotica [3]: > 25 ppm
LC50 TBW [4]: > 0.1%
LC50 CL [5]: 0.035%
LC50 BA [6]: > 0.05%

COC(=O)c1ccc(N=C(OCc2cccc(Oc3ccccc3)c2)C(C)C)o1 [Compound 14]
LC50 2-SM A [1]: > 0.05%
LC50 2-SM E [1]: > 0.05%
LC50 HF [2]: > 100 µg
LC50 Diabrotica [3]: > 25 ppm
LC50 TBW [4]: > 0.1%
LC50 CL [5]: 0.01%
LC50 BA [6]: > 0.05%

COc1ccc(N=C(OCc2cccc(Oc3ccccc3)c2)C2CC2)cn1 [Compound 15]
LC50 2-SM A [1]: > 0.05%
LC50 2-SM E [1]: > 0.05%
LC50 HF [2]: 58 µg
LC50 Diabrotica [3]: > 25 ppm
LC50 TBW [4]: > 0.1%
LC50 CL [5]: 0.05%
LC50 BA [6]: > 0.05%

CCCCc1nc2ccc(N=C(OCc3cccc(Oc4ccccc4)c3)C(C)C)cc2o1 [Compound 26]
LC50 2-SM A [1]: > 0.05%
LC50 2-SM E [1]: > 0.05%
LC50 HF [2]: > 100 µg
LC50 TBW [4]: > 0.1%
LC50 CL [5]: 0.004%
LC50 BA [6]: 0.05%

CC(C)C(=Nc1ccc2nc(C(C)C)oc2c1)OCc1cccc(Oc2ccccc2)c1 [Compound 27]
LC50 2-SM A [1]: > 0.05%
LC50 2-SM E [1]: > 0.05%
LC50 HF [2]: > 100 µg
LC50 TBW [4]: > 0.1%
LC50 CL [5]: 0.0035%
LC50 BA [6]: > 0.05%

CC(C)C(=Nc1ccc2nc(-c3ccccc3)oc2c1)OCc1cccc(Oc2ccccc2)c1 [Compound 28]
LC50 2-SM A [1]: > 0.05%
LC50 2-SM E [1]: > 0.05%
LC50 HF [2]: > 100 µg
LC50 Diabrotica [3]: > 25 ppm
LC50 TBW [4]: > 0.1%
LC50 CL [5]: 0.04%
LC50 BA [6]: > 0.05%

CC(C)C(=Nc1ccc(Cl)nc1)SCc1cccc(Oc2ccc(F)cc2)c1 [Compound 29]
LC50 2-SM A [1]: > 0.05%
LC50 2-SM E [1]: > 0.05%
LC50 HF [2]: > 100 µg
LC50 Diabrotica [3]: > 25 ppm
LC50 TBW [4]: > 0.1%
LC50 CL [5]: 0.025%
LC50 BA [6]: > 0.05%

CC(C)C(=Nc1ccc(Cl)nc1)OCc1cccc(Oc2ccc(Cl)cc2)c1 [Compound 30]
LC50 2-SM A [1]: > 0.05%
LC50 2-SM E [1]: > 0.05%
LC50 HF [2]: 15 µg
LC50 Diabrotica [3]: > 25 ppm
LC50 TBW [4]: 0.1%
LC50 CL [5]: 0.0007%
LC50 BA [6]: > 0.05%

CCOc1ccc(N=C(OCc2cccc(Oc3ccccc3)c2)C(C)C)cn1 [Compound 41]
LC50 2-SM A [1]: > 0.05%
LC50 2-SM E [1]: > 0.05%
LC50 HF [2]: < 100 µg
LC50 Diabrotica [3]: > 25 ppm
LC50 TBW [4]: > 0.1%
LC50 BA [6]: > 0.05%
